Consider seven compounds from publication PMC2860993 (PLoS ONE, 2010).

Series [1] has as its system recombinant luciferase-expressing CMV (Towne). Kind of series: microbe, parasite or virus in culture. It counts as cell-based, human CMV. Conditions: for Selectivity index (SI): ratio between CC50 and EC50. The procedure: Human Foreskin Fibroblasts (HFF) passage 12–16 and human lung fibroblasts (HEL) passage 8–12 (from ATCC) were maintained in DMEM containing 10% fetal bovine serum and used for infections with the viruses.
The CMV strains used for infections were the highly-passaged Towne virus, and a clinical isolate obtained from the urine of a neonate with congenital CMV infection (SB) and passaged once in tissue culture. […] Initial experiments were performed using a recombinant human CMV-green fluorescent protein (GFP) virus, derived from Towne strain. This virus has a 9-kb deletion from the dispensable unique short (US) region from US1 to US12, and instead contains the bacterial artificial chromosome sequences and a GFP expression cassette. […] A recombinant virus expressing luciferase reporter gene under the control of UL99 (pp28) late promoter was generated by insertion of the reporter gene between the US9 and US10 ORFs in the Towne genome.
Towne-GFP, Towne–luciferase, and SB viruses were used in these assays. HFF or HEL were grown to subconfluent monolayers and infected with the CMV viruses at MOI 0.1 to 3. […] The concentration of each compound was calculated and adjusted by volume such that it was constant throughout the experiment. Following 90 minute incubation, media was replaced with fresh media containing the drug used. Infected and treated cells were incubated at 37°C in a 5% CO2 atmosphere for 3–10 days depending on the virus and the anti-viral assay. The recombinant luciferase-expressing virus was incubated for 72 hours, the GFP virus was incubated for 5 days, and the clinical isolate for 10 days. All experiments were subsequently repeated with compounds added to wells just after viral inoculation.

The nature of series [2]: Cellular cytotoxicity, CellTiter-Glo Luminescent Cell Viability Assay. In kind it is cell-based. The conditions noted are these: human. Here is the method:
Human Foreskin Fibroblasts (HFF) passage 12–16 and human lung fibroblasts (HEL) passage 8–12 (from ATCC) were maintained in DMEM containing 10% fetal bovine serum and used for infections with the viruses. Cells in concentrations of 5×10^4 and 1×10^4 were seeded 24 hours prior to infection on each well of 24-and 96-well plates respectively.
Background: Cellular ATP, detected with luciferase, serves as a proxy for viable cell number.

The test system of another series is Toxoplasmosis. Kind of series: Anti-toxoplasmosis activity of compounds in supernatants of CMV infected cells. It counts as cell-based, Toxoplasma gondii. Conditions: Human betaherpesvirus 5; supernatants of CMV infected cells at 3–5 days post infection. An excerpt:
To confirm that the difference in anti-CMV activity between monomers and dimers was not a result of instability of the monomers in tissue culture, we determined the anti-toxoplasmosis activity of these compounds in the supernatants of CMV infected cells at 3–5 days post infection.

Series [3] deals with CMV IE1 protein expression. Briefly: Western blot for CMV immediate early protein IE1. In kind it is cell-based, human CMV. The conditions noted are these: for expression of IE1 and GFP: 100 µM, Towne-GFP, HFF, day 5 post infection; for IE1 expression: SB clinical isolate. Here is the method:
Monoclonal antibodies to CMV immediate early proteins IE-1 and IE-2 (MAb810) and to cellular β-actin were purchased from Millipore (Billerica, MA). Confluent cells were infected with CMV in the presence of artemisinin compounds. At the indicated times cells were harvested in sample buffer (RIPA buffer, Tris 50 mM, Nacl 150 mM, SDS 0.1%, Na Deoxycholate 0.5%, NP40 1%, and protease inhibitor cocktail), boiled and loaded onto SDS-PAGE. Proteins were separated by electrophoresis and transferred to nitrocellulose membrane. After blocking, blots were probed with primary antibody (1∶3,000) overnight at 4°C in phosphate-buffered saline, and Tween. After washing 3 times, blots were probed with HRP-conjugated anti-mouse (Sigma), 1∶5,000 for 1 hour at room temperature. Blots were washed three times in phosphate-buffered saline/Tween, and then developed by enhanced chemiluminescence according to manufacturer protocol.
The expression of CMV immediate early (IE) protein was tested by western blot to determine whether artemisinins' inhibition of CMV replication occurs early in the virus life cycle. […] Further evidence for the early effect of artemisinins on IE1 protein expression was obtained with the clinical isolate (SB, Fig. 5b).
Western blot for IE1 and GFP performed at day 5 post infection. […] Western blot for IE1 was performed at 12 hr (MOI = 3), 24 hr and 48 hr (MOI = 1) post infection.
(In general: In western blotting, separated proteins are transferred to a membrane and probed.)

In another series the test system is CMV clinical isolates. Further details: method as in PMID 11976732. The conditions noted are these: 11.1 µM ref 19; cited from earlier work.
Series [4] concerns recombinant luciferase-expressing CMV. Kind of series: Plaque reduction assay in human embryonic lung cells. Conditions: 10 µM; HEL cells; luciferase virus; 10 days. In kind it is cell-based, human CMV. Here is the method: For plaque reduction assay, human embryonic lung cells were seeded into six-well plates and incubated at 37°C one day prior to infection with the recombinant luciferase-expressing CMV. Serial dilutions of GCV, artesunate and artefanilide were used. The virus was diluted to a desired concentration which gave 50–60 plaques per well. Medium was aspirated from the wells, and 0.2 ml of virus suspension was added to each well in triplicates. Plates were incubated for 90 minutes with shaking every 10 min, thereafter drugs were added and a methylcellulose overlay applied to each well. After incubation for 10 days, cells were stained with crystal violet. The stain was aspirated, wells were washed with phosphate-buffered saline, and plaques were counted.
For orientation: In a plaque reduction assay, fewer plaques than in the control indicate reduced infectivity or spread.

The mark [5] stands for this setting: Human betaherpesvirus 5, read-out: EC50 (µM) - CMV.
[6] abbreviates: drug concentration that leads to 50% cellular cytotoxicity, mean and SD, at least five independent experiments, read-out: CC50.

SMILES strings stand for the structures. Where two headings read alike, the source gives them in different places.

For orientation: EC50 means the concentration that produces a half-maximal response. One may read the CC50 as the concentration giving 50% cytotoxicity.

For `C[C@H]1[C@@H](CCC(=O)Nc2ccc(F)cc2)O[C@@H]2O[C@@]3(C)CC[C@H]4[C@H](C)CC[C@@H]1[C@@]24OO3` [Artefanilide (3), artefanilide], the EC50 in series [1] (Human betaherpesvirus 5, 72 h) stood at 8.1 ± 2.2 µM. Also, the “Selectivity index (SI)” value in series [1] amounted to 5.5±1.6. The CC50 in series [2] turned out to be 44.9 ± 3.4 µM.

Take `CO[C@H]1O[C@@H]2O[C@@]3(C)CC[C@H]4[C@H](C)CC[C@@H]([C@H]1C)[C@@]24OO3` [Artemether (2c), artemether]: the concentration giving a half-maximal response (EC50) in series [1] (Human betaherpesvirus 5, 72 h) is 5.3 ± 2.7 µM; in series [1] (setting [5]), 5.1 ± 2.1 µM; in the series on Toxoplasmosis, 0.58 ± 0.22 µM. Besides, in series [1], the “Selectivity index (SI)” value was 3.5±2.2. This compound also displayed a cytotoxic concentration (CC50) in series [2] of 18.4 ± 7.5 µM.

For `C[C@@H]1CC[C@H]2[C@@H](C)C(=O)O[C@@H]3O[C@@]4(C)CC[C@@H]1[C@]32OO4` [Artemisinin (1), artemisinin], the “expression of IE1 and GFP” value in series [3] (MOI of 0.1) was “undetectable”; in series [3] (MOI of 0.5), “decreased”. In addition, the 50% effective concentration (EC50) was 16.8 ± 4 µM in series [1] (Human betaherpesvirus 5, 72 h); 15.7 ± 4.5 µM in series [1] (setting [5]); 4.1 ± 1.1 µM in the series on Toxoplasmosis. Further, in series [2] (setting [6]), the CC50 turned out to be 72.4 ± 15.7 µM.

For `C[C@H]1[C@H](OC(=O)CCC(=O)O)O[C@@H]2O[C@@]3(C)CC[C@H]4[C@H](C)CC[C@@H]1[C@@]24OO3` [Artesunate (2d), artesunate], the concentration giving a half-maximal response (EC50) in series [1] (Human betaherpesvirus 5, 72 h) was found to be 18.5 ± 5.2 µM; in series [1] (setting [5]), 17.2 ± 3.4 µM; with Toxoplasmosis, 3.2 ± 0.8 µM. In series [1], the “Selectivity index (SI)” value is reported as 4.2±2.2. Besides, the “in-vitro inhibition of clinical isolates” value in the series on CMV clinical isolates was 50–80%. Besides, the CC50 in series [2] (setting [6]) came to 77.5 ± 14.4 µM.

As for `C[C@H]1[C@@H](CC(CO)C[C@H]2O[C@@H]3O[C@@]4(C)CC[C@H]5[C@H](C)CC[C@@H]([C@H]2C)[C@@]35OO4)O[C@@H]2O[C@@]3(C)CC[C@H]4[C@H](C)CC[C@@H]1[C@@]24OO3` (some centres unmarked) [Dimer primary alcohol (4), dimer primary alcohol], the IE1 expression result in series [3] (1 µM, MOI = 1, 24 and 48 hr) was “significantly reduced”; in series [3] (1 µM, MOI = 3, 12 hours post infection) it was “inhibition of IE1 expression”. The EC50 was determined as 0.15 ± 0.02 µM in series [1] (Human betaherpesvirus 5, 72 h); 0.16 ± 0.04 µM in series [1] (setting [5]); 0.4 ± 0.15 µM with Toxoplasmosis. In addition, the “Selectivity index (SI)” value in series [1] is 380±53. Also, in series [2], half-maximal cytotoxicity (CC50) was put at 57 ± 2.3 µM.

For `C[C@H]1[C@@H](CC(C[C@H]2O[C@@H]3O[C@@]4(C)CC[C@H]5[C@H](C)CC[C@@H]([C@H]2C)[C@@]35OO4)CS(=O)(=O)c2ccc(COC(=O)N(C)C)cc2)O[C@@H]2O[C@@]3(C)CC[C@H]4[C@H](C)CC[C@@H]1[C@@]24OO3` (some centres unmarked) [Dimer sulfone carbamate (6), dimer sulfone dimethyl carbamate], the EC50 in series [1] (Human betaherpesvirus 5, 72 h) amounted to 0.06 µM. Besides, the “selectivity relative to GCV” value in series [1] (comparison of SI, Table 1) is “approximately 10 times”. For the same compound, the “Selectivity index (SI)” value in series [1] is listed as 508±173. For the same compound, half-maximal cytotoxicity in series [2] (CC50) was put at 28.1 ± 9.6 µM.

With `Nc1nc(O)c2ncn(COC(CO)CO)c2n1` [GCV, Ganciclovir], the IE1 expression result in series [3] (10 µM, MOI = 1, 24 and 48 hr) is “not affected”. In series [1] (Human betaherpesvirus 5, 72 h), the half-maximal effective concentration (EC50) was found to be 5.6 ± 0.2 µM. In addition, the “reduction in plaque formation” value in series [4] is 80%. Moreover, the 50% cytotoxic concentration (CC50) in series [2] (setting [6]) is 247 ± 33.4 µM.
